Molecules are shown by their SMILES.

As a reminder, the IC50 is the concentration needed to halve the response being measured. Read a high IC50 as a need for much substance.

Experiment in all cases: Cell proliferation assay (Alamar Blue)
Holding throughout (format): cell-based
In general terms: Resazurin is reduced to fluorescent resorufin, in cell work by metabolically active cells.

The test system of one test is JHH1. The settings on record: 144 h; JHH1 liver cancer cell line; 6 days. Put shortly:
(§1)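 Seeding density per line set in pilot runs (500–1×10^4/well); treatment began after 4 h with a 3.16-fold, nine-point series from 30 or 100 μM, in duplicate. Six days later, 1–4 h AlamarBlue incubation, fluorescence read, inhibition relative to control wells fitted for IC50.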

The test system of another test is NCl-H1703. As to conditions: for IC50: 144 h, NCl-H1703 (lung cancer cells), 6 days. Put shortly: as §1
In another test the test system is SNU387. The settings on record: Homo sapiens, SNU-387, 144 h; SNU387 liver cancer cell line; 6 days. Put shortly: as §1
The test system of another test is KM12. The settings on record: Homo sapiens, 144 h; KM12 tumor cell line; 6 days. Put shortly:
as §1

The test system of a further test is NCl-H661. As to conditions: 144 h; NCl-H661 tumor cell line; 6 days. In a few lines: as §1
The next test relates to HT1080. The settings on record: Homo sapiens, HT-1080, 144 h; HT1080 tumor cell line; 6 days. Put shortly:
as §1

The next test has as its system KASUMI-1. As to conditions: KASUMI-1 (leukemia cells); for IC50: Homo sapiens, 144 h, 6 days. In a few lines:
as §1

The next test has as its system SNU182. The settings on record: Homo sapiens, SNU-182, 144 h; SNU182 liver cancer cell line; 6 days. Put shortly: as §1
The subject of the next test is HuTu80. As to conditions: Homo sapiens, 144 h; HuTu80 tumor cell line; 6 days. Put shortly: as §1
The test system of another test is SK-HEP-1. As to conditions: Homo sapiens, SK-HEP1, 144 h; SK-HEP-1 liver cancer cell line; 6 days. In a few lines: as §1
A further test has as its system HUH6. As to conditions: Homo sapiens, HuH-6, 144 h; HUH6 liver cancer cell line; 6 days. In a few lines:
as §1

In a further test the test system is JHH2. The settings on record: JHH-2, 144 h; JHH2 liver cancer cell line; 6 days. Put shortly: as §1
The test system of the next test is HCCLM3. As to conditions: Homo sapiens, 144 h; HCCLM3 tumor cell line; 6 days. Put shortly:
as §1

In a further test the test system is HLF. The settings on record: 144 h; HLF liver cancer cell line; 6 days. Put shortly: as §1
The test system of another test is SNU761. The settings on record: 144 h; SNU761 liver cancer cell line; 6 days. In a few lines:
as §1

The subject of another test is 22RV1. The settings on record: Homo sapiens, 144 h; 22RV1 tumor cell line; 6 days. Put shortly: as §1
A further test concerns NCl-H526. The settings on record: 144 h; NCl-H526 tumor cell line; 6 days. Put shortly: as §1
A further test relates to JHH6. As to conditions: 144 h; JHH6 liver cancer cell line; 6 days. In a few lines:
as §1

The test system of the next test is SNU739. The settings on record: SNU-739, 144 h; SNU739 liver cancer cell line; 6 days. In a few lines: as §1
Another test deals with SNU398. As to conditions: Homo sapiens, SNU-398, 144 h; SNU398 liver cancer cell line; 6 days. In a few lines: as §1
The next test deals with SNU475. The settings on record: Homo sapiens, SNU-475, 144 h; SNU475 liver cancer cell line; 6 days. Put shortly: as §1
The next test has as its system HT55. As to conditions: Homo sapiens, 144 h; HT55 tumor cell line; 6 days. Put shortly:
as §1

In another test the test system is SNU449. The settings on record: Homo sapiens, SNU-449, 144 h; SNU449 liver cancer cell line; 6 days. In a few lines: as §1

`Cc1ccc(F)c(NC(=O)Nc2ccc(-c3cccc4c3c(N)nn4C(=O)CCCCCNC(=O)C[C@H](N)C(=O)O)cc2)c1` [Compound 11]: the IC50 in the test with JHH1 was over 100 µM; in the test on NCl-H1703, 0.89 µM; with SNU387, over 100 µM; in the test on KM12 it was 28.5 µM; in the test with NCl-H661 it was over 100 µM; in the test on HT1080 it was 94.4 µM. Moreover, the IC50 was 1.21 µM in the test with KASUMI-1; over 100 µM in the test on SNU182; 23.1 µM in the test on HuTu80; 55.4 µM in the test on SK-HEP-1; 46.4 µM in the test with HUH6; 93.5 µM in the test with JHH2. Moreover, the IC50 in the test with HCCLM3 was 74.3 µM; with HLF it was 49.4 µM; with SNU761, 77 µM; in the test with 22RV1 it was 90.1 µM; in the test with NCl-H526, 92.4 µM; in the test on JHH6, 54.4 µM. The half-inhibitory concentration (IC50) with SNU739 was 64 µM; in the test with SNU398, 79 µM; with SNU475, 76.1 µM; with HT55, over 100 µM; in the test on SNU449, over 100 µM.

For `Cc1ccc(F)c(NC(=O)Nc2ccc(-c3cccc4c3c(N)nn4C(=O)CCCCCNC(=O)C[C@H](N)C(=O)N[C@@H](CCC(=O)O)C(=O)O)cc2)c1` [Compound 4], the half-maximal inhibitory concentration (IC50) is over 100 µM with JHH1; 1.59 µM in the test with NCl-H1703; over 100 µM in the test with SNU387; 33.9 µM in the test on KM12; 99.5 µM in the test on NCl-H661; over 100 µM in the test with HT1080. In addition, the IC50 is 1.71 µM in the test on KASUMI-1; over 100 µM in the test on SNU182; 38.2 µM with HuTu80; 64 µM in the test with SK-HEP-1; 53.8 µM in the test on HUH6; over 100 µM in the test with JHH2. Further, the IC50 in the test on HCCLM3 is 82 µM; in the test with HLF, 52.6 µM; in the test on SNU761, 85 µM; with 22RV1, over 100 µM; in the test on NCl-H526, over 100 µM; with JHH6, 67.7 µM. Besides, the IC50 in the test with SNU739 was 73.8 µM; in the test with SNU398, 96.5 µM; in the test with SNU475, 81.3 µM; in the test with HT55, over 100 µM; with SNU449 it was over 100 µM.

With `Cc1ccc(F)c(NC(=O)Nc2ccc(-c3cccc4c3c(N)nn4C(=O)CCCCCCCCCCCNC(=O)C[C@H](N)C(=O)N[C@@H](CCC(=O)N[C@@H](CCC(=O)N[C@@H](CCC(=O)N[C@@H](CCC(=O)N[C@@H](CCC(=O)N[C@@H](CCC(=O)N[C@@H](CCC(=O)N[C@@H](CCC(=O)N[C@@H](CCC(=O)O)C(=O)O)C(=O)O)C(=O)O)C(=O)O)C(=O)O)C(=O)O)C(=O)O)C(=O)O)C(=O)O)cc2)c1` [Compound 9], the IC50 is over 100 µM with JHH1; 0.33 µM with NCl-H1703; over 100 µM in the test with SNU387; 21.8 µM in the test on KM12; over 100 µM in the test with NCl-H661; over 100 µM with HT1080. The IC50 was 0.23 µM with KASUMI-1; over 100 µM with SNU182; 73.5 µM with HuTu80; over 100 µM in the test with SK-HEP-1; 50.3 µM in the test with HUH6; over 100 µM in the test with JHH2. Further, the IC50 with HCCLM3 was over 100 µM; with HLF, 63.4 µM; in the test with SNU761 it was over 100 µM; with 22RV1, over 100 µM; in the test with NCl-H526, over 100 µM; in the test on JHH6 it was 65.3 µM. The IC50 was over 100 µM with SNU739; 82.7 µM in the test with SNU398; 77.8 µM in the test on SNU475; over 100 µM in the test on HT55; 90 µM in the test with SNU449.

With `Cc1ccc(F)c(NC(=O)Nc2ccc(-c3cccc4[nH]nc(N)c34)cc2)c1` [Linifanib, reference compound], the IC50 came to 12.2 µM in the test with JHH1; 0.02 µM with NCl-H1703; 12.3 µM with SNU387; 1.39 µM in the test with KM12; 13.3 µM in the test with NCl-H661; 6.4 µM with HT1080. For the same compound, the IC50 was 0.01 µM in the test on KASUMI-1; 15.2 µM in the test on SNU182; 1.85 µM with HuTu80; 7.11 µM in the test with SK-HEP-1; over 30 µM in the test on HUH6; 29.5 µM in the test with JHH2. The concentration for half-maximal inhibition (IC50) stood at 6.67 µM in the test on HCCLM3; 3.65 µM in the test with HLF; 8.98 µM in the test with SNU761; 7.5 µM in the test on 22RV1; 7.8 µM in the test with NCl-H526; 4.11 µM in the test on JHH6. Also, the IC50 in the test with SNU739 was found to be 5.45 µM; in the test on SNU398, 1.91 µM; in the test with SNU475, 5.37 µM; in the test with HT55, 22.3 µM; in the test on SNU449 it was 10.2 µM.

For the compound `Cc1ccc(F)c(NC(=O)Nc2ccc(-c3cccc4c3c(N)nn4C(=O)CCCCCNC(=O)C[C@H](N)C(=O)N[C@@H](CCC(=O)N[C@@H](CCC(=O)N[C@@H](CCC(=O)N[C@@H](CCC(=O)O)C(=O)O)C(=O)O)C(=O)O)C(=O)O)cc2)c1` [Compound 5], the IC50 in the test with JHH1 is over 100 µM; in the test on NCl-H1703, 3.43 µM; with SNU387, over 100 µM; with KM12, 45.7 µM; with NCl-H661, over 100 µM; with HT1080, over 100 µM. For the same compound, the IC50 in the test with KASUMI-1 was 3.21 µM; with SNU182, over 100 µM; in the test with HuTu80, 48.4 µM; in the test with SK-HEP-1, 85.1 µM; in the test with HUH6, 72.2 µM; in the test with JHH2 it was over 100 µM. The IC50 in the test on HCCLM3 is over 100 µM; in the test on HLF, 63.9 µM; in the test on SNU761 it was over 100 µM; in the test with 22RV1 it was over 100 µM; in the test with NCl-H526, over 100 µM; in the test with JHH6, 79.3 µM. Besides, the IC50 in the test on SNU739, in the test on SNU398, in the test on SNU475, in the test on HT55 and in the test on SNU449 was over 100 µM in each case.

As to `Cc1ccc(F)c(NC(=O)Nc2ccc(-c3cccc4c3c(N)nn4C(=O)CCCCCCCCCCCNC(=O)C[C@H](N)C(=O)N[C@@H](CCC(=O)N[C@@H](CCC(=O)N[C@@H](CCC(=O)N[C@@H](CCC(=O)O)C(=O)O)C(=O)O)C(=O)O)C(=O)O)cc2)c1` [Compound 8], the 50% inhibitory concentration (IC50) with JHH1 is 35.4 µM; with NCl-H1703, 0.08 µM; in the test with SNU387 it was 90.2 µM; in the test on KM12, 12.4 µM; with NCl-H661 it was over 100 µM; with HT1080, 45.3 µM. Moreover, the IC50 is 0.1 µM in the test on KASUMI-1; over 100 µM in the test on SNU182; 43.8 µM in the test with HuTu80; over 100 µM in the test with SK-HEP-1; 28.2 µM with HUH6; over 100 µM in the test on JHH2. Further, the IC50 was over 100 µM in the test on HCCLM3; 44.6 µM in the test with HLF; 80.1 µM with SNU761; over 100 µM with 22RV1; 100 µM in the test on NCl-H526; 41.7 µM with JHH6. The IC50 in the test on SNU739 is 64.9 µM; in the test with SNU398, 50.1 µM; with SNU475, 57.5 µM; in the test with HT55, over 100 µM; in the test with SNU449, 60.3 µM. In addition, the “difference of IC50 value versus Linifanib” value turned out to be 4 times with NCl-H1703 (NCI-H1703 (lung cancer cells)) and 10 times in the test on KASUMI-1.

These data come from US11351151B2, “Compound having anticancer activity and preparation method and application” (3D Medicines (Beijing) Co., Ltd., priority 2016, dated 2022).
